Results from patent US20040038894A1, “Compounds for modulating cell negative regulations and biological applications thereof” (INSTITUT NATIONAL DE LA SANTE ET DE LA RECHERCHE MEDICALE …, priority 1996, published 2004).
Where a SMILES comes first, the peptide text is derived from it. Where no end group is shown, it is not given here. The star is where a group is joined. Biotin = O=C1N[C@H]2[C@H](CS[C@H]2CCCCC(=O)*)N1

Experiments:
SHP-1 = biological target: T1, SHP-1 (Rattus norvegicus, UniProt P81718); experiment: Cell lysate adsorption to peptides, anti-SHP-1 immunoblot; type: binding; details: RBL-2H3 lysates, peptide on streptavidin beads
T1 construct: endogenous in cells; host or cells: RBL-2H3
T1 sequence (P81718 whole entry): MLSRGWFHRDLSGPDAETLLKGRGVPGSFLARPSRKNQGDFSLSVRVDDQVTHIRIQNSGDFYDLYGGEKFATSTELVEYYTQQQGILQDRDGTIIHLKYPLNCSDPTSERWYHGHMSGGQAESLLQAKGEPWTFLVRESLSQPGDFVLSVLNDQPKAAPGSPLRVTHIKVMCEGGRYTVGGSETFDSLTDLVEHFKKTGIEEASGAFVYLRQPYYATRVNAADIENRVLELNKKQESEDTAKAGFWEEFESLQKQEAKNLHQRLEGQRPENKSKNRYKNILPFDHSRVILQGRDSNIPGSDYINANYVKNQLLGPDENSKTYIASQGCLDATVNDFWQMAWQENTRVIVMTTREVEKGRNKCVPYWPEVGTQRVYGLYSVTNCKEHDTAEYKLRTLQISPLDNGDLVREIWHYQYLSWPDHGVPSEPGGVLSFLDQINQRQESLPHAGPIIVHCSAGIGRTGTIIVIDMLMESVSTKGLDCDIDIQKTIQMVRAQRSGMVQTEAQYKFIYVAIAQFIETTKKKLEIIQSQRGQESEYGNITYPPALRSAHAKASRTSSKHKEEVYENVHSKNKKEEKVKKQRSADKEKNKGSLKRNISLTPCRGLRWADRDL
Method: (§1) Assay for cell lysate adsorption to peptides. RBL-2H3 cells were lysed in NP-40 lysis buffer (1% NP-40, 10 mM Tris-HCl, 150 mM NaCl, 1 mM EDTA, 1 mM PMSF, 10 mM iodoacetamide, 10 mM NaF, 10 mM Na pyrophosphate, 0.4 mM Na vanadate, 10 μg/ml leupeptine, 10 μg/ml aprotinine). Samples were either used directly (whole cell lysates: WCL), or subjected to affinity purification using peptides bound to beads. Biotinylated peptides (5 μg) were coupled to 50 μl streptavidin-agarose bead slurry (Sigma) for 1 hour at 4° C., prior to bead saturation with D-biotin (1 mg/ml) for 1 hour at 4° C. After 3 washes in lysis buffer, samples were separated on SDS-PAGE and transferred to nitrocellulose.
(§2) RBL-2H3 and ^35S-labeled IIA.1.6 cells were lysed in NP-40 lysis buffer (1% NP-40, 10 mM Tris-HCl, 150 mM NaCl, 1 mM EDTA, 1 mM PMSF, 10 mM iodoacetamide, 10 mM NaF, 10 mM Na pyrophosphate, 0.4 mM Na vanadate, 10 μg/ml leupeptin, 10 μg/ml aprotinin). Samples were either used directly (whole cell lysates: WCL), or subjected to affinity purification using peptides bound to beads. Biotinylated peptides (5 μg) were coupled to 50 μl streptavidin-agarose slurry beads for 1 hour at 4° C., prior to bead saturation with D-biotin (1 mg/ml) for 1 hour at 4° C. After 3 washes in lysis buffer, samples were fractionated on 8% SDS-polyacrylamide gel electrophoresis (SDS-PAGE) under reducing condition and transferred to nitrocellulose.
(§3) Results are illustrated by FIG. 15 showing the in vitro interaction between NKG2A ITIMs and SHP-1, SHP-2 and SHIP phosphatases. In FIG. 15, RBL-2H3 cell lysates (15A) or ^35S-labeled ILA.1.6 cell lysates (15B) were absorbed with indicated biotinylated peptides coupled to streptavidin-beads. Affinity-bound proteins (30×10^6 cells/sample) or whole cell lysates (WCL, 5×10^6 cells/sample) were resolved on 8% SDS-PAGE under reducing conditions prior to autoradiography (15B), or immunoblotting using anti-SHIP antiserum, anti-SHP-2 mAb and anti-SHP-1 mAbs (15A).

SHIP = biological target: T2, SHIP (Rattus norvegicus, UniProt P97573); experiment: Cell lysate adsorption to peptides, anti-SHIP immunoblot; type: binding; details: RBL-2H3 lysates, peptide on streptavidin beads
T2 construct: RBL-2H3 cells were lysed in NP-40 lysis buffer; endogenous in cells; host or cells: RBL-2H3
T2 sequence (P97573 1-1190): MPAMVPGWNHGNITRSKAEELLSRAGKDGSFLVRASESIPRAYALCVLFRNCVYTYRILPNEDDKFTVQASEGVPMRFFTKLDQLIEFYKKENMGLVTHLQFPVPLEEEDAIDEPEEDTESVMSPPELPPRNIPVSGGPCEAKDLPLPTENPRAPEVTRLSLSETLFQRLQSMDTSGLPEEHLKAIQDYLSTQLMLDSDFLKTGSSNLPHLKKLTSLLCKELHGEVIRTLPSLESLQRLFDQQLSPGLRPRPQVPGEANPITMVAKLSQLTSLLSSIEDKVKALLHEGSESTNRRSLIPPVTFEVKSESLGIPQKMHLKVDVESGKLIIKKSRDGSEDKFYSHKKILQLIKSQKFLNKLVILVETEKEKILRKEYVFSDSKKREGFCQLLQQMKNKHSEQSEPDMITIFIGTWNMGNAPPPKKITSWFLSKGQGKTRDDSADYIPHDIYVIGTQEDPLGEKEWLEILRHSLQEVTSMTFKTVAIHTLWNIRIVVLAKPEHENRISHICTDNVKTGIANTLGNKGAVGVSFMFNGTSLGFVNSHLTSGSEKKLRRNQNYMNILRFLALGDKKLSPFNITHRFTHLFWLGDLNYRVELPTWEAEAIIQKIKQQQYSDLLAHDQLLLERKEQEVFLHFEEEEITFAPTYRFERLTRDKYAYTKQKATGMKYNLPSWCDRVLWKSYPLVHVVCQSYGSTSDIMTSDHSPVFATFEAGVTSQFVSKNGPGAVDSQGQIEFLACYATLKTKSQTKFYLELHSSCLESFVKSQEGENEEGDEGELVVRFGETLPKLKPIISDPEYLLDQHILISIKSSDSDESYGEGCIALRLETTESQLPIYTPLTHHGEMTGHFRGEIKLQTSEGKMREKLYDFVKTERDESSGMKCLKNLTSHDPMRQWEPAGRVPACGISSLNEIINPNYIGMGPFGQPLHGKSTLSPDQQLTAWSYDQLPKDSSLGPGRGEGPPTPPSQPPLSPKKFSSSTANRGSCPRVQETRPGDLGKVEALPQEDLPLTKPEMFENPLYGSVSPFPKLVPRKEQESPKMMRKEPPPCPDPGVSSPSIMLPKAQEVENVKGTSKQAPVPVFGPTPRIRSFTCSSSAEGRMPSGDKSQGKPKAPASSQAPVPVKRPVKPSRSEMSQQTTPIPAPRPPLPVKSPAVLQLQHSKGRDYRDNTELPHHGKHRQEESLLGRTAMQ
Method: as §1, §2, §3

SHP-2 = biological target: T3, SHP-2 (Rattus norvegicus, UniProt P41499); experiment: Cell lysate adsorption to peptides, anti-SHP-2 immunoblot; type: binding; details: RBL-2H3 lysates, peptide on streptavidin beads
T3 construct: RBL-2H3 cells were lysed in NP-40 lysis buffer; endogenous in cells; host or cells: RBL-2H3
T3 sequence (P41499 1-593): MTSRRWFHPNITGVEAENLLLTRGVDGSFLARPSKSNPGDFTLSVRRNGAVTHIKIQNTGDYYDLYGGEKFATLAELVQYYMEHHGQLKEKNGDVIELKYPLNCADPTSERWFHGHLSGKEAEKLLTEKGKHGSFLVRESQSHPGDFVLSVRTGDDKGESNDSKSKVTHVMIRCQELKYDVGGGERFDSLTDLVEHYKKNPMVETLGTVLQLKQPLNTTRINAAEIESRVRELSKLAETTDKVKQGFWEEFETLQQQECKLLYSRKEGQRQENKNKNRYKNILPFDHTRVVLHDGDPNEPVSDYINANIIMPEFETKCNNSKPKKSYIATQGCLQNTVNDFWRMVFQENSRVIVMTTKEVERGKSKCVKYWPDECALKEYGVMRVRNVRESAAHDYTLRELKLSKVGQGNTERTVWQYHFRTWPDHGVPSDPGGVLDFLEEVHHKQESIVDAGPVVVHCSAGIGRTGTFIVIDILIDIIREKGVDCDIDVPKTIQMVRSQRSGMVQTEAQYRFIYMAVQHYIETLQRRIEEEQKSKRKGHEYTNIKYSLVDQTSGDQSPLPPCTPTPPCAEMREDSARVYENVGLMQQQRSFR
Method: as §1, §2, §3

GST-SHP-1.SH2(N) = biological target: T4, GST-SHP-1.SH2(N) (Mus musculus, UniProt P29351); experiment: Surface plasmon resonance (BIAcore), SHP-1 N-SH2 domain; type: binding, murine; details: for koff / kon: phosphorylated peptide immobilized, 5 μl/min
T4 construct: recombinant fusion proteins corresponding to the isolated N- and C-SH2 domains of SHP-1; made in house; host or cells: E. coli DH5α
T4 sequence (P29351 4-100 limits assumed): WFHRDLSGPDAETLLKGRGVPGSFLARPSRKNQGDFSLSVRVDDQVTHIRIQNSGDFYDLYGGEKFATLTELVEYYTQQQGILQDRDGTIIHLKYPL
Method: (§4) Fusion proteins and surface plasmon resonance analysis. Surface plasmon resonance (SPR) measurements were performed on a BIAcore™ (Pharmacia). The GST-SHP-1.SH2(NC), GST-SHP-1.SH2(N), GST-SHP-1.SH2(C), GST-SHIP.SH2 fusion proteins generated from the murine phosphatase cDNA, were purified from DH5α lysates. Briefly, overnight culture at 37° C. in LB medium containing 50 μg/ml ampicillin was diluted 1/10 in fresh medium, and incubated until the absorbance at 600 nm reaches 1-2. At that point, IPTG was added (1 mM), and incubation continued for an additional 4 hours at 37° C. After centrifugation, bacteria pellet was resuspended in TENGN buffer (50 mM Tris pH 8, 1 mM EDTA, 10% glycerol, 1% NP40, 1 mM DTT, 1 mM PMSF, 10 μg/ml aprotinin and 10 μg/ml leupeptine). Bacteria were lysed by sonication. After centrifugation, supernatant was incubated with Glutathione-Sepharose 4B beads (Pharmacia) overnight at 4° C. with slow shaking. After 3 washes with 50 mM Tris pH 8, elution of the fusion protein was carried out using 50 mM Tris pH 8 supplemented with 10 mM reduced glutathione. Before their use in BIAcore™ experiments, fusion proteins were dialyzed in HBS buffer (10 mM HEPES, 150 mM NaCl, 3.4 mM EDTA). Protein purity was assessed by 12.5% SDS-PAGE, and Coomassie blue staining. The running buffer used in all BIAcore™ experiments consisted of HBS buffer supplemented with 0.05% surfactant P20. For preparation of microchips coated with phosphorylated peptides, immunopure streptavidine (Sigma) was first immobilized onto CMS-sensorchip. Then, biotinylated peptides were injected, and their binding to streptavidine-coated microchips was assessed using anti-phosphotyrosine 4G10 mAb (UHI).
(§5) The measurement of phosphorylated p58.2 peptide binding to GST-SHP-1.SH2(N) and GST-SHP-1.SH2(C) fusion proteins was at a constant 5 μl/min flow rate. In the representative experiment of which results are reported in the above table I, 130 and 160 RU of respectively p58.2.1 and p58.2.2 peptides were immobilized on microchips. The regeneration was performed using HBS buffer supplemented with 0.03% SDS. Results are expressed as corrected resonance units (CRU) corresponding to the raw RU values subtracted from background RU value due to the injection medium. […] koff and kon were calculated from three independent measurements using the BLAevaluation 2.0 software. Kd was calculated from koff/kon.

GST-SHP-1.SH2(C) = biological target: T5, GST-SHP-1.SH2(C) (Mus musculus, UniProt P29351); experiment: Surface plasmon resonance (BIAcore), SHP-1 C-SH2 domain; type: binding, murine; details: phosphorylated peptide immobilized; 5 μl/min
T5 construct: recombinant fusion proteins corresponding to the isolated N- and C-SH2 domains of SHP-1; made in house; host or cells: E. coli DH5α
T5 sequence (P29351 110-213 limits assumed): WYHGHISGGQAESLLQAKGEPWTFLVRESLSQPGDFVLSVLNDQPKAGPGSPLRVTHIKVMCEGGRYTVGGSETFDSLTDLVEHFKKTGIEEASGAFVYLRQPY
Method: as §4, §5

binding of SHP-1 from cell lysates (SHP-1)	binding of SHIP from cell lysates (SHIP)	binding of SHP-2 from cell lysates (SHP-2)	binding of SHIP from cell lysates (SHIP; listed as FcγRIIB phosphorylated ITIM peptides)	Compound	Kd (GST-SHP-1.SH2(N))	koff (GST-SHP-1.SH2(N))	kon (GST-SHP-1.SH2(N))	koff (GST-SHP-1.SH2(C))	kon (GST-SHP-1.SH2(C))
No association	No association	No association		KTEAENTITY262SLLK [nonphosphorylated peptides corresponding to FcγRIIB]					
abolishes the binding	not affected	abolishes the binding		KTEAENTATY262SLLK (KTEAENTATYSLLK) [FcγRIIB 1-I260A, point mutant of FcγRIIB ITIM peptide]					
				CC(C)C[C@H](NC(=O)[C@H](CCC(N)=O)NC(=O)[C@H](C)NC(=O)[C@H](Cc1ccc(OP(=O)(O)O)cc1)NC(=O)[C@@H](NC(=O)[C@@H](NC(=O)[C@H](CCC(=O)O)NC(=O)[C@H](CCC(N)=O)NC(=O)[C@@H]1CCCN1C(=O)[C@H](CC(=O)O)NC(=O)[C@H](CCC(N)=O)NC(=O)[C@H](CCC(=O)O)NC(=O)[C@H](CC(=O)O)NC(=O)CCCC[C@@H]1SC[C@@H]2NC(=O)N[C@@H]21)C(C)C)[C@@H](C)O)C(=O)N[C@@H](CC(N)=O)C(=O)N[C@@H](Cc1c[nH]cn1)C(=O)O [p58.2.1, DEQDPQEVTY303AQLNH] (HELM PEPTIDE1{[O=C1N[C@H]2[C@H](CS[C@H]2CCCCC(=O)[*:2])N1].D.E.Q.D.P.Q.E.V.T.[O=C([C@H](Cc1ccc(OP(=O)(O)O)cc1)N[*:1])[*:2]].A.Q.L.N.H}$$$$V2.0)	423 nM	0.042 s⁻¹	100000 M⁻¹ s⁻¹	0.0007 s⁻¹	5000 M⁻¹ s⁻¹
recruit	recruit	recruit	associate	KTEAENTITY262SLLK [FcγRIIB ITIM] (Biotin-KTEAENTITYSLLK) [murine FcγRIIB1/B2 ITIM peptide]					
				CC[C@H](C)[C@H](NC(=O)[C@H](CC(=O)O)NC(=O)[C@@H](NC(=O)[C@@H]1CCCN1C(=O)[C@@H]1CCCN1C(=O)[C@@H](NC(=O)[C@H](CCCCN)NC(=O)[C@@H]1CCCN1C(=O)[C@H](CCCNC(=N)N)NC(=O)[C@H](CCC(N)=O)NC(=O)[C@H](CO)NC(=O)[C@@H]1CCCN1C(=O)[C@H](CCCNC(=N)N)NC(=O)CCCC[C@@H]1SC[C@@H]2NC(=O)N[C@@H]21)[C@@H](C)O)[C@@H](C)O)C(=O)N[C@H](C(=O)N[C@H](C(=O)N[C@@H](Cc1ccc(OP(=O)(O)O)cc1)C(=O)N[C@H](C(=O)N[C@@H](CCC(=O)O)C(=O)N[C@@H](CC(C)C)C(=O)N1CCC[C@H]1C(=O)N[C@@H](CC(N)=O)C(=O)N[C@@H](C)C(=O)N[C@@H](CCC(=O)O)C(=O)N1CCC[C@H]1C(=O)O)[C@@H](C)O)C(C)C)[C@@H](C)CC [p58.2.2, RP SQ RPKTPPTDIIVY333TELPNAEP] (HELM PEPTIDE1{[O=C1N[C@H]2[C@H](CS[C@H]2CCCCC(=O)[*:2])N1].R.P.S.Q.R.P.K.T.P.P.T.D.I.I.V.[O=C([C@H](Cc1ccc(OP(=O)(O)O)cc1)N[*:1])[*:2]].T.E.L.P.N.A.E.P}$$$$V2.0)	3160 nM	0.025 s⁻¹	8000 M⁻¹ s⁻¹	0.0003 s⁻¹	600 M⁻¹ s⁻¹
abolishes the binding		abolishes the binding		DEQDPQEATY303AQLN (DEQDPQEATYAQLN) [p58.2.1-V301A, point mutant of KIR N-terminal ITIM peptide]					
